Assay results published in ChEMBL document CHEMBL1201862, “PubChem BioAssay data set” (2004).
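Test compounds were applied to cells in 96-well plates for 48 hours at 5 doses. GI50: concentration for 50% inhibition of growth.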 Calls of active or inactive are those of the source. No stated cut-off is given here; in the data, active = GI50 up to about 1.1 µM and inactive = higher.

Columns and labels:
Assay in all cases: NCI anticancer screen, dose series, 48 h
[1] = system: SR
[2] = system: UACC-257
[3] = system: ACHN
[4] = system: K562
[5] = system: T47D
[6] = system: OVCAR-8
[7] = system: UACC-62
[8] = system: MDA-MB-231
[9] = system: TK-10
[10] = system: NCI-H522
[11] = system: SN12C
[12] = system: NCI-H460
[13] = system: HOP-92
[14] = system: SK-OV-3
[15] = system: COLO 205
[16] = system: OVCAR-5
[17] = system: BT-549
[18] = system: OVCAR-3
[19] = system: SNB-19
[20] = system: DU-145
[21] = system: KM12
[22] = system: SK-MEL-28
[23] = system: RXF 393
[24] = system: A549
[25] = system: HCT-15
[26] = system: M14
[27] = system: MDA-MB-435
[28] = system: U-251
[29] = system: SF-539
[30] = system: UO-31
[31] = system: MOLT-4
[32] = system: HCC 2998
[33] = system: OVCAR-4
[34] = system: EKVX
[35] = system: SW-620
[36] = system: MDA-N
[37] = system: MCF7
[38] = system: CAKI-1
[39] = system: 786-0
[40] = system: SF-268
[41] = system: SF-295
[42] = system: NCI/ADR-RES
[43] = system: NCI-H226
[44] = system: SNB-75
[45] = system: CCRF-CEM
[46] = system: NCI-H23
[47] = system: Malme-3M
[48] = system: IGROV-1
[49] = system: A498
[50] = system: HOP-62
[51] = system: HCT-116
[52] = system: PC-3
[53] = system: SK-MEL-5
[54] = system: RPMI-8226
[55] = system: LOX IMVI
[56] = system: HT-29
[57] = system: Hs-578T
[58] = system: SK-MEL-2
[59] = system: HL-60

For Cc1nn(-c2ccccc2)c2nc3c(c(C)nn3-c3ccccc3)c(-c3ccccc3Br)c12, the GI50 [1] was > 100 µM (inactive), the GI50 [2] was > 100 µM (inactive) and the GI50 [3] was > 100 µM (inactive). The GI50 [4] was > 100 µM (inactive), the GI50 [5] was > 100 µM (inactive) and the GI50 [6] was > 100 µM (inactive). The GI50 [7] was > 100 µM (inactive), the GI50 [8] was > 100 µM (inactive) and the GI50 [9] was > 100 µM (inactive). The GI50 [10] was > 100 µM (inactive), the GI50 [11] was > 100 µM (inactive) and the GI50 [12] was > 100 µM (inactive). The GI50 [13] was > 100 µM (inactive), the GI50 [14] was > 100 µM (inactive) and the GI50 [15] was > 100 µM (inactive). For the same compound, the GI50 [16] was > 100 µM (inactive), the GI50 [17] was > 100 µM (inactive) and the GI50 [18] was > 100 µM (inactive). The GI50 [19] was > 100 µM (inactive), the GI50 [20] was > 100 µM (inactive) and the GI50 [21] was > 100 µM (inactive). The GI50 [22] was > 100 µM (inactive), the GI50 [23] was > 100 µM (inactive) and the GI50 [24] was 8.95 µM (inactive). For the same compound, the GI50 [25] was greater than 100 µM, the GI50 [26] was > 100 µM (inactive) and the GI50 [27] was > 100 µM (inactive). The GI50 [28] was > 100 µM (inactive), the GI50 [29] was > 100 µM (inactive) and the GI50 [30] was 59.4 µM (inactive). The GI50 [31] was > 100 µM (inactive), the GI50 [32] was > 100 µM (inactive) and the GI50 [33] was > 100 µM (inactive). For the same compound, the GI50 [34] was > 100 µM (inactive), the GI50 [35] was > 100 µM (inactive) and the GI50 [36] was > 100 µM (inactive). The GI50 [37] was > 100 µM (inactive), the GI50 [38] was > 100 µM (inactive) and the GI50 [39] was > 100 µM (inactive). For the same compound, the GI50 [40] was > 100 µM (inactive), the GI50 [41] was 57.3 µM (inactive) and the GI50 [42] was > 100 µM (inactive). The GI50 [43] was > 100 µM (inactive), the GI50 [44] was > 100 µM (inactive) and the GI50 [45] was > 100 µM (inactive). For the same compound, the GI50 [46] was > 100 µM (inactive), the GI50 [47] was > 100 µM (inactive) and the GI50 [48] was > 100 µM (inactive). The GI50 [49] was > 100 µM (inactive), the GI50 [50] was > 100 µM (inactive) and the GI50 [51] was > 100 µM (inactive). The GI50 [52] was > 100 µM (inactive), the GI50 [53] was > 100 µM (inactive) and the GI50 [54] was > 100 µM (inactive). For the same compound, the GI50 [55] was > 100 µM (inactive) and the GI50 [56] was > 100 µM (inactive).

In the case of COc1cc2c(cc1C[C@H]1[C@@H]3C[C@H]4c5c(c6ccccc6n5C)C[C@@H]([C@@H]3CO[C@]1(C)OC(C)=O)N4C)c1c(n2C)C2C[C@H]3C(C(C)=O)=COC[C@H]3[C@H](C1)N2C, the GI50 [1] is reported as 2.64 µM (inactive), the GI50 [2] is reported as 4.03 µM (inactive) and the GI50 [3] is reported as 3.87 µM (inactive). The GI50 [4] was 6.03 µM (inactive), the GI50 [5] was 2.2 µM (inactive) and the GI50 [6] was 3.66 µM (inactive). The GI50 [7] was 5.11 µM (inactive), the GI50 [8] was 4.55 µM (inactive) and the GI50 [9] was 3.62 µM (inactive). For the same compound, the GI50 [11] was 6.24 µM (inactive), the GI50 [12] was 3.38 µM (inactive) and the GI50 [13] was 4.98 µM (inactive). The GI50 [14] was 11.1 µM (inactive), the GI50 [15] was 3.08 µM (inactive) and the GI50 [16] was 4.35 µM (inactive). For the same compound, the GI50 [17] was 3.29 µM (inactive), the GI50 [18] was 2.66 µM (inactive) and the GI50 [19] was 5.2 µM (inactive). For the same compound, the GI50 [20] was 6.38 µM (inactive), the GI50 [21] was 2 µM (inactive) and the GI50 [22] was 9.91 µM (inactive). For the same compound, the GI50 [23] was 2.58 µM (inactive), the GI50 [24] was > 25 µM (inactive) and the GI50 [25] was 3.13 µM. The GI50 [26] was 3.11 µM (inactive), the GI50 [27] was > 25 µM (inactive) and the GI50 [28] was 5.57 µM (inactive). The GI50 [29] was 2.84 µM (inactive), the GI50 [30] was 6.27 µM (inactive) and the GI50 [31] was 2.44 µM (inactive). The GI50 [57] was 2.8 µM (inactive), the GI50 [32] was 0.0102 µM (active) and the GI50 [33] was 3.8 µM (inactive). For the same compound, the GI50 [34] was 0.403 µM (active), the GI50 [35] was 4.13 µM (inactive) and the GI50 [37] was 7.48 µM (inactive). The GI50 [38] was 2.23 µM (inactive), the GI50 [39] was 2.86 µM (inactive) and the GI50 [40] was 2.69 µM (inactive). For the same compound, the GI50 [41] was 4.67 µM (inactive), the GI50 [42] was 2.93 µM (inactive) and the GI50 [43] was 5.46 µM (inactive). For the same compound, the GI50 [58] was 4.86 µM (inactive), the GI50 [45] was 2.55 µM (inactive) and the GI50 [46] was 7.06 µM (inactive). The GI50 [47] was 3.18 µM (inactive), the GI50 [48] was 7.24 µM (inactive) and the GI50 [49] was 12.3 µM (inactive). For the same compound, the GI50 [50] was 1.56 µM (inactive), the GI50 [51] was 2.5 µM (inactive) and the GI50 [52] was 0.462 µM (active). The GI50 [53] was 3.54 µM (inactive), the GI50 [54] was 0.764 µM (active) and the GI50 [55] was > 25 µM (inactive). For the same compound, the GI50 [56] was 1.53 µM (inactive).

In the case of COC1(OC)N=C(N)C2(C#N)C3(C(=O)N(C(C)C)N=C3C)C12C#N (stereo unspecified), the GI50 [1] is reported as > 100 µM (inactive), the GI50 [2] is reported as > 100 µM (inactive) and the GI50 [59] is reported as > 100 µM (inactive). For the same compound, the GI50 [3] was > 100 µM (inactive), the GI50 [4] was > 100 µM (inactive) and the GI50 [5] was > 100 µM (inactive). The GI50 [6] was > 100 µM (inactive), the GI50 [7] was > 100 µM (inactive) and the GI50 [8] was > 100 µM (inactive). For the same compound, the GI50 [10] was > 100 µM (inactive), the GI50 [11] was > 100 µM (inactive) and the GI50 [12] was > 100 µM (inactive). The GI50 [13] was > 100 µM (inactive), the GI50 [14] was > 100 µM (inactive) and the GI50 [15] was > 100 µM (inactive). The GI50 [16] was > 100 µM (inactive), the GI50 [17] was > 100 µM (inactive) and the GI50 [18] was 49.7 µM (inactive). For the same compound, the GI50 [19] was > 100 µM (inactive), the GI50 [20] was > 100 µM (inactive) and the GI50 [21] was > 100 µM (inactive). For the same compound, the GI50 [22] was > 100 µM (inactive), the GI50 [23] was > 100 µM (inactive) and the GI50 [24] was > 100 µM (inactive). For the same compound, the GI50 [25] was greater than 100 µM, the GI50 [26] was > 100 µM (inactive) and the GI50 [27] was > 100 µM (inactive). For the same compound, the GI50 [28] was > 100 µM (inactive), the GI50 [29] was > 100 µM (inactive) and the GI50 [30] was > 100 µM (inactive). For the same compound, the GI50 [31] was > 100 µM (inactive), the GI50 [32] was > 100 µM (inactive) and the GI50 [33] was > 100 µM (inactive). The GI50 [34] was > 100 µM (inactive), the GI50 [35] was > 100 µM (inactive) and the GI50 [36] was > 100 µM (inactive). The GI50 [37] was > 100 µM (inactive), the GI50 [38] was > 100 µM (inactive) and the GI50 [39] was > 100 µM (inactive). For the same compound, the GI50 [40] was > 100 µM (inactive), the GI50 [41] was > 100 µM (inactive) and the GI50 [42] was > 100 µM (inactive). For the same compound, the GI50 [43] was > 100 µM (inactive), the GI50 [44] was > 100 µM (inactive) and the GI50 [58] was > 100 µM (inactive). For the same compound, the GI50 [45] was > 100 µM (inactive), the GI50 [46] was > 100 µM (inactive) and the GI50 [47] was > 100 µM (inactive). The GI50 [48] was > 100 µM (inactive), the GI50 [49] was > 100 µM (inactive) and the GI50 [50] was > 100 µM (inactive). For the same compound, the GI50 [51] was > 100 µM (inactive), the GI50 [52] was > 100 µM (inactive) and the GI50 [54] was > 100 µM (inactive). For the same compound, the GI50 [56] was > 100 µM (inactive).
